According to ChEMBL document CHEMBL1143038, “Highly oxygenated and unsaturated metabolites providing a diversity of hispidin class antioxidants in the medicinal mushrooms Inonotus and Phellinus” (Bioorg Med Chem, 2007):

Columns and labels:
Format in all cases: functional
[1] = tested on: Radical scavenging activity; test: Antioxidant activity assessed as DPPH radical scavenging activity
[2] = Antioxidant activity assessed as superoxide radical anion scavenging activity
[3] = Antioxidant activity assessed as ABTS radical scavenging activity

COC(=O)/C(=C\c1ccc(O)c(O)c1)c1c(O)cc(/C=C/c2ccc(O)c(O)c2)oc1=O [INTERFUNGIN C]
IC50 [1]: 3.7 µM
IC50 [2]: 3.1 µM
IC50 [3]: 11.1 µM

VITAMIN E
IC50 [1]: > 100 µM
IC50 [2]: 3.4 µM
IC50 [3]: 11.6 µM

CC(=O)/C=C(O)/C(=C\c1ccc(O)c(O)c1)c1c(O)cc(/C=C/c2ccc(O)c(O)c2)oc1=O [INTERFUNGIN A]
IC50 [1]: 6.3 µM
IC50 [2]: 2.7 µM
IC50 [3]: 14.1 µM

CC(=O)/C(=C\c1ccc(O)c(O)c1)c1c(O)cc(/C=C/c2ccc(O)c(O)c2)oc1=O [INTERFUNGIN B]
IC50 [1]: 2.5 µM
IC50 [2]: 1.8 µM
IC50 [3]: 11.1 µM

O=C(O)/C=C/c1ccc(O)c(O)c1 [CAFFEIC ACID]
IC50 [1]: 3.7 µM
IC50 [2]: 2.2 µM
IC50 [3]: 25.9 µM
